As usually defined, the IC50 is the concentration that gives 50% inhibition.

This is an account of results in patent US20230257351A1, “SUBSTITUTED N-[…] HAVING P2X4 RECEPTOR ANTAGONISTIC ACTIVITY” (Bayer Aktiengesellschaft, priority 2020, published 2023).

One assay addresses T1, human P2X4 (Homo sapiens, UniProt Q99571).
T1 construct: expressed in transfected cells
T1 sequence (Q99571 1-388): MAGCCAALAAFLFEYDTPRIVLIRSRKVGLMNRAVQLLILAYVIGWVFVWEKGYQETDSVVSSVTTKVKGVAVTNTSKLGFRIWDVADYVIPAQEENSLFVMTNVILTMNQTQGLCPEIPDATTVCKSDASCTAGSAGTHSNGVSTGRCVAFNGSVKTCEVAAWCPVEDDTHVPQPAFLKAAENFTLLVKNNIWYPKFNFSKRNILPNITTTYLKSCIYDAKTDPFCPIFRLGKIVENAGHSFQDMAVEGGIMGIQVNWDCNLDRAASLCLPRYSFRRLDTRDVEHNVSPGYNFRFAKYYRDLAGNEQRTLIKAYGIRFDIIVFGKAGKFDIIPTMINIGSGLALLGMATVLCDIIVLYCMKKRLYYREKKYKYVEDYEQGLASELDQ
In words: Human P2X4 HEK Cell FLIPR Assay. In kind it is cell-based. The following applies: HEK293 stably expressing human P2X4, agonist Bz-ATP 3 μM (EC80); for IC50: read-out: Human P2X4 HEK Cells (FLIPR Assay) avg IC50. The essentials:
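HEK293 cells stably expressing human P2X4 were loaded with Fluo8-AM (30 min, 37 °C, HBSS/HEPES pH 7.4 with probenecid), then preincubated 30 min at room temperature with compound, 25 μM–1 nM final, 0.5% DMSO. Bz-ATP-evoked calcium fluorescence was read on FLIPR; data were normalized to agonist control and given a four-parameter fit for IC50.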

In another assay the target is T2, rat P2X4 (Rattus norvegicus, UniProt P51577).
T2 construct: expressed in transfected cells
T2 sequence (P51577 1-388): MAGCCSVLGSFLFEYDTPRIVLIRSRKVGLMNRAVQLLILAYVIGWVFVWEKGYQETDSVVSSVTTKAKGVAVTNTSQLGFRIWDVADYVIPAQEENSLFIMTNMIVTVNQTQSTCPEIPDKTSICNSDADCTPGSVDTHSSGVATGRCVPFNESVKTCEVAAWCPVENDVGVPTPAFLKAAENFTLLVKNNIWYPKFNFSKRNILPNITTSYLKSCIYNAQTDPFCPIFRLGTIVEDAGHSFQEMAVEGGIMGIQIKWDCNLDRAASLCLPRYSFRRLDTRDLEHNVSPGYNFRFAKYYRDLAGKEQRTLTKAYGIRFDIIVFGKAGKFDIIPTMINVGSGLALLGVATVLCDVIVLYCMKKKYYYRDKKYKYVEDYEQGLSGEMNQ
The assay is described as follows: FLIPR Method for Rat P2X4 1321N1 Astrocytoma Cells. It is filed as cell-based. The conditions noted are these: 1321N1 stably expressing rat P2X4; agonist MgATP 5 μM (EC80). In short, it runs like this:
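1321N1 cells stably expressing rat P2X4, Fluo8-AM loaded; compounds (25 μM to 1 nM final, ten concentrations) preincubated 30 min at room temperature, then MgATP added at 5 μM (EC80). Calcium fluorescence read on FLIPR before and after agonist; triplicate data normalized to agonist control, four-parameter fit gives IC50.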

With `CC(=O)N(c1ccc(F)c(F)c1)c1cc(NC(=O)Cc2c(C)cc(Cl)cc2Cl)ccn1` [Example 64, N-{4-[2-(2,4-dichloro-6-methylphenyl)acetamido]pyridin-2-yl}-N-(3,4-difluorophenyl)acetamide], on human P2X4, the “Human P2X4 HEK Cells (FLIPR Assay) avg Efficacy” value (“Human P2X4 HEK Cells” for short) stood at 96% and the IC50 stood at 829 nM. Moreover, on rat P2X4, the IC50 came to 497 nM and the “Rat P2X4 1321N1 Astrocytoma Cells (FLIPR Assay) avg Efficacy” value (shortened to “Rat P2X4 1321N1 Astrocytoma Cells”) turned out to be 100%.

As to `CC(=O)N(c1ccc(F)c(F)c1)c1cc(NC(=O)Cc2c(C)cc(C)cc2Cl)ccn1` [Example 65, N-{4-[2-(2-chloro-4,6-dimethylphenyl)acetamido]pyridin-2-yl}-N-(3,4-difluorophenyl)acetamide], at human P2X4, the “Human P2X4 HEK Cells” value came to 94% and the half-inhibitory concentration (IC50) stood at 505 nM. Besides, on rat P2X4, the IC50 stood at 122 nM and the “Rat P2X4 1321N1 Astrocytoma Cells” value was found to be 93%.

Consider `CC(=O)N(c1ccc(F)c(F)c1)c1cc(NC(=O)Cc2c(C)cccc2C)ccn1` [Example 66, N-(3,4-difluorophenyl)-N-{4-[2-(2,6-dimethylphenyl)acetamido]pyridin-2-yl}acetamide], for which, at human P2X4, the “Human P2X4 HEK Cells” value was determined as 90% and the IC50 turned out to be 303 nM. Also, at rat P2X4, the IC50 came to 64.2 nM and the “Rat P2X4 1321N1 Astrocytoma Cells” value is 73%.

With `CC(=O)N(c1ccc(F)c(F)c1)c1cc(NC(=O)Cc2ccc(Cl)cc2Cl)ccn1` [Example 67, N-{4-[2-(2,4-dichlorophenyl)acetamido]pyridin-2-yl}-N-(3,4-difluorophenyl)acetamide], on human P2X4, the “Human P2X4 HEK Cells” value is reported as 94% and the IC50 worked out at 604 nM. For the same molecule, on rat P2X4, the IC50 amounted to 159 nM and the “Rat P2X4 1321N1 Astrocytoma Cells” value was 97%.

As to `CC(=O)N(c1ccc(F)c(F)c1)c1cc(NC(=O)Cc2ccc([N+](=O)[O-])cc2Cl)ccn1` [Example 69, N-{4-[2-(2-chloro-4-nitrophenyl)acetamido]pyridin-2-yl}-N-(3,4-difluorophenyl)acetamide], at human P2X4, the “Human P2X4 HEK Cells” value is 94% and the IC50 worked out at 816 nM. Further, on rat P2X4, the IC50 is 228 nM and the “Rat P2X4 1321N1 Astrocytoma Cells” value is reported as 100%.

For the molecule `COc1ccc(CC(=O)Nc2ccnc(N(C(C)=O)c3ccc(F)c(F)c3)c2)c(Cl)c1` [Example 70, N-{4-[2-(2-chloro-4-methoxyphenyl)acetamido]pyridin-2-yl}-N-(3,4-difluorophenyl)acetamide], at human P2X4, the “Human P2X4 HEK Cells” value is given as 88% and the IC50 was found to be 714 nM. At rat P2X4, the 50% inhibitory concentration (IC50) was found to be 714 nM and the “Rat P2X4 1321N1 Astrocytoma Cells” value is given as 100%.

In the case of `CC(=O)N(c1ccc(F)c(F)c1)c1cc(NC(=O)Cc2cccc(F)c2Cl)ccn1` [Example 71, N-{4-[2-(2-chloro-3-fluorophenyl)acetamido]pyridin-2-yl}-N-(3,4-difluorophenyl)acetamide], on human P2X4, the “Human P2X4 HEK Cells” value worked out at 96% and the IC50 stood at 222 nM. Also, at rat P2X4, the IC50 is 165 nM and the “Rat P2X4 1321N1 Astrocytoma Cells” value came to 90%.

With `CC(=O)N(c1ccc(F)c(F)c1)c1cc(NC(=O)Cc2c(Cl)cccc2Cl)ccn1` [Example 72, N-{4-[2-(2,6-dichlorophenyl)acetamido]pyridin-2-yl}-N-(3,4-difluorophenyl)acetamide], at human P2X4, the “Human P2X4 HEK Cells” value was found to be 97% and the IC50 worked out at 355 nM. Besides, at rat P2X4, the IC50 worked out at 58.5 nM and the “Rat P2X4 1321N1 Astrocytoma Cells” value was 89%.

With `CC(=O)N(c1ccc(F)c(F)c1)c1cc(NC(=O)Cc2c(Cl)cc(F)cc2Cl)ccn1` [Example 73, N-{4-[2-(2,6-dichloro-4-fluorophenyl)acetamido]pyridin-2-yl}-N-(3,4-difluorophenyl)acetamide], at human P2X4, the “Human P2X4 HEK Cells” value worked out at 97% and the 50% inhibitory concentration (IC50) is 428 nM. In addition, at rat P2X4, the IC50 came out at 67.1 nM and the “Rat P2X4 1321N1 Astrocytoma Cells” value is 93%.

Consider `CC(=O)N(c1ccc(F)c(F)c1)c1cc(NC(=O)Cc2c(Cl)cc(C)cc2Cl)ccn1` [Example 74, N-{4-[2-(2,6-dichloro-4-methylphenyl)acetamido]pyridin-2-yl}-N-(3,4-difluorophenyl)acetamide], for which, on human P2X4, the “Human P2X4 HEK Cells” value is given as 89% and the IC50 turned out to be 585 nM. Further, on rat P2X4, the IC50 came out at 99.1 nM and the “Rat P2X4 1321N1 Astrocytoma Cells” value is recorded as 97%.

Regarding `CC(=O)N(c1ccc(F)c(F)c1)c1cc(NC(=O)Cc2ccccc2OC(F)(F)F)ccn1` [Example 76, N-(3,4-difluorophenyl)-N-(4-{2-[2-(trifluoromethoxy)phenyl]acetamido}pyridin-2-yl)acetamide], at human P2X4, the “Human P2X4 HEK Cells” value is recorded as 97% and the IC50 was 397 nM. Also, on rat P2X4, the IC50 was 667 nM and the “Rat P2X4 1321N1 Astrocytoma Cells” value is listed as 99%.

As to `COc1ccc(N(C(C)=O)c2cc(NC(=O)Cc3ccccc3Cl)ccn2)cc1F` [Example 77, N-{4-[2-(2-chlorophenyl)acetamido]pyridin-2-yl}-N-(3-fluoro-4-methoxyphenyl)acetamide], at human P2X4, the “Human P2X4 HEK Cells” value turned out to be 94% and the IC50 worked out at 354 nM. Also, on rat P2X4, the IC50 turned out to be 993 nM and the “Rat P2X4 1321N1 Astrocytoma Cells” value is listed as 84%.

In the case of `COc1ccc(N(C(C)=O)c2cc(NC(=O)Cc3cccc(F)c3Cl)ccn2)cc1F` [Example 79, N-{4-[2-(2-chloro-3-fluorophenyl)acetamido]pyridin-2-yl}-N-(3-fluoro-4-methoxyphenyl)acetamide], at human P2X4, the “Human P2X4 HEK Cells” value was determined as 97% and the IC50 worked out at 399 nM. In addition, on rat P2X4, the IC50 was determined as 1110 nM and the “Rat P2X4 1321N1 Astrocytoma Cells” value amounted to 96%.

Turning to `COc1ccc(N(C(C)=O)c2cc(NC(=O)Cc3c(Cl)cccc3Cl)ccn2)cc1F` [Example 80, N-{4-[2-(2,6-dichlorophenyl)acetamido]pyridin-2-yl}-N-(3-fluoro-4-methoxyphenyl)acetamide], at human P2X4, the “Human P2X4 HEK Cells” value amounted to 99% and the IC50 was found to be 451 nM. Moreover, on rat P2X4, the IC50 is 338 nM and the “Rat P2X4 1321N1 Astrocytoma Cells” value is listed as 97%.

For the molecule `CC(=O)N(c1cc(F)cc(F)c1)c1cc(NC(=O)Cc2cccc(C)c2C)ccn1` [Example 83, N-(3,5-difluorophenyl)-N-{4-[2-(2,3-dimethylphenyl)acetamido]pyridin-2-yl}acetamide], at human P2X4, the “Human P2X4 HEK Cells” value is given as 97% and the IC50 worked out at 350 nM. Further, on rat P2X4, the IC50 stood at 143 nM and the “Rat P2X4 1321N1 Astrocytoma Cells” value came out at 90%.

For `CC(=O)N(c1cc(F)cc(F)c1)c1cc(NC(=O)Cc2ccccc2C(F)(F)F)ccn1` [Example 84, N-(3,5-difluorophenyl)-N-(4-{2-[2-(trifluoromethyl)phenyl]acetamido}pyridin-2-yl)acetamide], on human P2X4, the “Human P2X4 HEK Cells” value was determined as 100% and the IC50 came to 314 nM. Further, at rat P2X4, the IC50 was found to be 1030 nM and the “Rat P2X4 1321N1 Astrocytoma Cells” value stood at 100%.

Turning to `CC(=O)N(c1cc(F)cc(F)c1)c1cc(NC(=O)Cc2c(C)cccc2C)ccn1` [Example 85, N-(3,5-difluorophenyl)-N-{4-[2-(2,6-dimethylphenyl)acetamido]pyridin-2-yl}acetamide], at human P2X4, the “Human P2X4 HEK Cells” value stood at 98% and the half-inhibitory concentration (IC50) is 251 nM. Also, on rat P2X4, the IC50 is 229 nM and the “Rat P2X4 1321N1 Astrocytoma Cells” value amounted to 97%.

In the case of `CC(=O)N(c1cc(F)cc(F)c1)c1cc(NC(=O)Cc2ccccc2Cl)ccn1` [Example 86, N-{4-[2-(2-chlorophenyl)acetamido]pyridin-2-yl}-N-(3,5-difluorophenyl)acetamide], at human P2X4, the “Human P2X4 HEK Cells” value turned out to be 98% and the 50% inhibitory concentration (IC50) amounted to 196 nM. On rat P2X4, the IC50 is 393 nM and the “Rat P2X4 1321N1 Astrocytoma Cells” value was found to be 98%.

In the case of `CC(=O)N(c1cc(F)cc(F)c1)c1cc(NC(=O)Cc2ccc(F)cc2Cl)ccn1` [Example 87, N-{4-[2-(2-chloro-4-fluorophenyl)acetamido]pyridin-2-yl}-N-(3,5-difluorophenyl)acetamide], at human P2X4, the “Human P2X4 HEK Cells” value amounted to 98% and the IC50 came out at 313 nM. At rat P2X4, the IC50 came to 983 nM and the “Rat P2X4 1321N1 Astrocytoma Cells” value was found to be 94%.
